Like-named read-outs stand apart in the source and are kept apart here.
What was measured:
[1] = tested on: HCoV-229E; test: microbe, parasite or virus in culture; assay type: cell-based; conditions: Human coronavirus 229E, Huh-7, 24 h
[2] = tested on: EBOV 5′ UTR VP40; assay type: cell-based, Ebola virus
[3] = tested on: 5′ UTR of MERS-CoV; assay type: cell-based, Middle East Respiratory Syndrome coronavirus
[4] = tested on: PV; test: microbe, parasite or virus in culture; assay type: cell-based, poliovirus type 1; conditions: Enterovirus C, MRC5, 24 h
[5] = Cell toxicity, MTT assay; conditions: human, PBMCs
[6] = tested on: HCoV-229E; test: microbe, parasite or virus in culture; assay type: cell-based; conditions: Human coronavirus 229E, MRC5, 24 h
[7] = ref Saradhi et al., 2011; cited from earlier work
[8] = tested on: HCoV-229E; test: Immunofluorescence of viral dsRNA and nsp8 in HCoV-229E-infected MRC-5 cells; assay type: cell-based, human coronavirus 229E; conditions: MRC-5, MOI 3, 12 h p.i.
[9] = tested on: EBOV; conditions: cited from earlier work
[10] = tested on: 5′ UTR of the ß-actin mRNA; assay type: cell-based
[11] = tested on: PV; test: microbe, parasite or virus in culture; assay type: cell-based, poliovirus type 1
[12] = tested on: 5′ UTR of PIM1; assay type: cell-based
[13] = tested on: HRV A1; test: microbe, parasite or virus in culture; assay type: cell-based, human rhinovirus A1; conditions: Rhinovirus A, MRC5, 24 h
[14] = tested on: EBOV 5′ UTR L; assay type: cell-based, Ebola virus
[15] = tested on: HCoV-229E; test: microbe, parasite or virus in culture; assay type: cell-based; conditions: Human coronavirus 229E, PBMC
[16] = tested on: HCoV-229E; assay type: cell-based, human coronavirus 229E; conditions: MRC-5 cells, 10 nM silvestrol, MOI 3, 12 h and 48 h p.i.
[17] = tested on: HCoV-229E; assay type: cell-based, human coronavirus 229E; conditions: Huh-7 cells, MOI 3
[18] = tested on: MERS-CoV; test: microbe, parasite or virus in culture; assay type: cell-based, Middle East Respiratory Syndrome coronavirus
[19] = tested on: 5′ UTR of HCoV-229E; assay type: cell-based, human coronavirus 229E
[20] = tested on: HRV A1; test: microbe, parasite or virus in culture; assay type: cell-based, human rhinovirus A1; conditions: Rhinovirus A, HeLa, 24 h
[21] = tested on: 5′ UTR of the classical swine fever virus (CSFV); assay type: cell-based
[22] = Middle East respiratory syndrome-related coronavirus, MRC5, 24 h

Which EC50 [1] does the source give for `COC(=O)[C@H]1[C@@H](O)[C@@]2(O)c3c(OC)cc(O[C@@H]4O[C@@H]([C@H](O)CO)CO[C@H]4OC)cc3O[C@@]2(c2ccc(OC)cc2)[C@@H]1c1ccccc1` [silvestrol] here?
The EC50 was 40 nM.

And the EC90 [1]?
The EC90 was 360 nM.

And the “decrease of firefly luciferase activity” value [2]?
The value was 23%.

What about the “decrease of luciferase activity” value [3] of the same compound?
Its value is ~40%.

And the EC50 [4]?
Its EC50 is ~20 nM.

What about the EC90 [4] of the same compound?
Its EC90 is 180 nM.

What about the CC50 at 24 h [5] of the same compound?
The CC50 at 24 h was > 1000 nM.

And the EC50 [6]?
The EC50 was 3 nM.

And the EC90 [6]?
Its EC90 is 27 nM.

What about the “pharmacokinetics in terms of bioavailability and biostability” value [7] of the same compound?
The value was “favorable pharmacokinetics”.

What about the “viral dsRNA and nsp8 protein (immunofluorescence)” value ([8]; 10 nM silvestrol) of the same compound?
The value was “significant decrease”.

What about the “viral dsRNA and nsp8 protein (immunofluorescence)” value ([8]; 100 nM silvestrol) of the same compound?
Its value is “nearly no viral dsRNA and nsp8 could be detected”.

What about the EBOV titers [9] of the same compound?
The EBOV titers was “strongly reduce EBOV titers”.

What about the “inhibition of firefly luciferase expression” value [10] of the same compound?
Its value is “not more than 10%”.

What about the “SI, selectivity indices” value [11] of the same compound?
The value was ≤ 1.6.

And the EC50 ([11]; Enterovirus C, Vero, 24 h)?
Its EC50 is 100 nM.

What about the EC90 ([11]; Enterovirus C, Vero, 24 h) of the same compound?
The EC90 was 900 nM.

And the “inhibition of firefly luciferase expression” value [12]?
Its value is ~40%.

And the EC50 [13]?
Its EC50 is ~100 nM.

What about the EC90 [13] of the same compound?
The EC90 was 900 nM.

And the “decrease of firefly luciferase activity” value [14]?
The value was 33%.

What about the EC50 [15] of the same compound?
Its EC50 is 3.5 nM.

What about the EC50 ([15]; 24 h) of the same compound?
Its EC50 is 2.8 nM.

What about the EC90 ([15]; 24 h) of the same compound?
The EC90 was 25 nM.

What about the “N and nsp8 protein accumulation (Western blot)” value (“N and nsp8 protein accumulation” for short) [16] of the same compound?
The value was “very low amounts”.

What about the “N and nsp8 protein accumulation” value ([17]; 100 nM silvestrol) of the same compound?
Its value is “essentially undetectable”.

What about the “N and nsp8 protein accumulation” value ([17]; silvestrol up to 10 nM) of the same compound?
The value was “unaffected”.

And the “SI, selectivity index” value [18]?
The value was >7690.

And the EC50 [18, 22]?
The EC50 was 1.3 nM.

What about the EC90 [18, 22] of the same compound?
Its EC90 is 12 nM.

What about the “decrease of luciferase activity” value [19] of the same compound?
The value was ~40%.

And the EC50 [20]?
The EC50 was 400 nM.

And the EC90 [20]?
Its EC90 is 3600 nM.

And the “sensitivity towards silvestrol in the dual luciferase assay” value [21]?
The value was “no sensitivity”.

— publication PMC7113723 (Antiviral Research, 2017)
